Measurements as given in patent US9394297B2, “Amides as pim inhibitors” (AMGEN INC., priority 2012, dated 2016).
Where two headings read alike, the source gives them in different places.

Columns and labels:
[1] = test system: KMS-12-BM myeloma cell line; experiment: Pim KMS-12 cell assay (phospho-BAD S112 / total BAD, MSD)
Pim-2 = Pim-2 (Homo sapiens (Human), UniProt Q9P1W9); experiment: Pim-Mn enzyme assay (HTRF, 384-well), Pim-2; assay type: biochemical; conditions: Pim-2 enzyme 0.5 pM, ATP 1.5 μM, BAD (S112) 0.5 μM, HTRF, 22-point curve; read-out: Pim-2-Mn IC50 IP
Pim-1 = Pim-1 (Homo sapiens (Human), UniProt P11309); experiment: Pim-Mn enzyme assay (HTRF, 384-well), Pim-1; assay type: biochemical; conditions: Pim-1 enzyme 5 pM, ATP 1.5 μM, BAD (S112) 0.5 μM, HTRF, 22-point curve; read-out: Pim-1-Mn IC50 IP
KMS-12-BM cell lines = experiment: KMS12 #2 flow cytometry assay (phospho-BAD Ser112); assay type: cell-based; conditions: Homo sapiens, 110 min; KMS-12-BM cells, pBAD Ser112 by flow cytometry, 110 min with compound; read-out: KMS-12-Flow IC50 IP
[2] = read-out: KMS-12-BM IC50 IP, KMS-12-BM cells, phospho-BAD (S112) vs total BAD, 1 hour 50 min with compound
[3] = Homo sapiens, KMS-12-BM, read-out: KMS-12-BM IC50 IP, KMS-12-BM cells, phospho-BAD (S112) vs total BAD, 1 hour 50 min with compound

Pim-2, sequence (Q9P1W9 whole entry): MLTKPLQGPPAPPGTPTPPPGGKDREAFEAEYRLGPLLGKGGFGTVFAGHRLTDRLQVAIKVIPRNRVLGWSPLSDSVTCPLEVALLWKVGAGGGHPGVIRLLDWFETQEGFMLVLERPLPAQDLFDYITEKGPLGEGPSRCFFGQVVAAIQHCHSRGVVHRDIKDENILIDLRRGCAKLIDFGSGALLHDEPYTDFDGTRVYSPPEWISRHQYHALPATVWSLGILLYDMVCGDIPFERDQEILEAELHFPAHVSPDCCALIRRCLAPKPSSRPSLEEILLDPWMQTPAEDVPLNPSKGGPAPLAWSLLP
Pim-1, sequence (P11309 whole entry): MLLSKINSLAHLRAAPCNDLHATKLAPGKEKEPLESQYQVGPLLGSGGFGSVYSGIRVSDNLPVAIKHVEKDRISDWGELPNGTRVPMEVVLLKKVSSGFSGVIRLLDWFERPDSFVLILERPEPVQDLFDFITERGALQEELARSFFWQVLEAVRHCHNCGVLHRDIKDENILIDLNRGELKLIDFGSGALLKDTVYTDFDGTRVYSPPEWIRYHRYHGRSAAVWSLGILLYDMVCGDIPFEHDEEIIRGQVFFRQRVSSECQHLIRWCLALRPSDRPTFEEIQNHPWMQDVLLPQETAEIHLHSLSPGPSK

| IC50 [1, 3] [µM] | SMILES | other results |
| --- | --- | --- |
| 1.51 | O=C1NCCc2[nH]c(-c3cccc4ccc(Nc5c(F)cccc5F)nc34)cc21 [Example 175, 2-(2-((2,6-difluorophenyl)amino)quinolin-8-yl)-6,7-dihydro-1H-pyrrolo[3,2-c]pyridin-4(5H)-one] | – |
| 0.252 | Cc1nc2cccc(-c3cc4c([nH]3)CCNC4=O)c2nc1NC(C)(C)CCO [Example 279, 2-(3-((3-hydroxy-1,1-dimethylpropyl)amino)-2-methyl-5-quinoxalinyl)-1,5,6,7-tetrahydro-4H-pyrrolo[3,2-c]pyridin-4-one] | – |
| 1.53 | Cc1nc2cccc(-c3cc4c([nH]3)CCNC4=O)c2nc1CC(C)(C)C [Example 272, 2-(3-(2,2-dimethylpropyl)-2-methyl-5-quinoxalinyl)-1,5,6,7-tetrahydro-4H-pyrrolo[3,2-c]pyridin-4-one] | IC50 (Pim-2): 0.0078 µM |
| 1.24 | Cc1nc2cccc(-c3cc4c([nH]3)CCNC4=O)c2nc1N[C@H]1CCC[C@@H](N)C1 (single isomer, unassigned) [Example 140, 2-(3-((cis-3-aminocyclohexyl)amino)-2-methylquinoxalin-5-yl)-6,7-dihydro-1H-pyrrolo[3,2-c]pyridin-4(5H)-one] | – |
| 7.54 | CC(c1ccccc1)c1ccc2cccc(-c3cc4c([nH]3)CCNC4=O)c2n1 (single isomer, unassigned) [Example 116, 2-(2-(1-phenylethyl)quinolin-8-yl)-6,7-dihydro-1H-pyrrolo[3,2-c]pyridin-4(5H)-one] | – |
| 0.225 | CC1(C)CCCN1c1cnc2cccc(-c3cc4c([nH]3)CCNC4=O)c2n1 [Example 216] | – |
| 3.44 | CC(C)(C)Nc1nc2c(-c3cc4c([nH]3)CCNC4=O)cccc2nc1C=O [Example 282, 3-(tert-butylamino)-5-(4-oxo-4,5,6,7-tetrahydro-1H-pyrrolo[3,2-c]pyridin-2-yl)-2-quinoxalinecarbaldehyde] | IC50 (Pim-1): 0.0053 µM |
| 1.28 | CC1CNC(=O)c2cc(-c3cccc4ccc(Nc5ccccc5)nc34)[nH]c21 (racemic) [Example 238, rac-7-methyl-2-(2-(phenylamino)quinolin-8-yl)-6,7-dihydro-1H-pyrrolo[3,2-c]pyridin-4(5H)-one] | – |
| 1.85 | CC[C@H]1CNC(=O)c2cc(-c3cccc4ccc(Nc5ccccc5)nc34)[nH]c21 [Example 239, (S)-7-ethyl-2-(2-(phenylamino)quinolin-8-yl)-6,7-dihydro-1H-pyrrolo[3,2-c]pyridin-4(5H)-one] | – |
| 0.307 | Cc1nc2cccc(-c3cc4c([nH]3)CCNC4=O)c2nc1NC1CCCOC1 (racemic) [Example 198, rac-2-(2-methyl-3-((tetrahydro-2H-pyran-3-yl)amino)quinoxalin-5-yl)-6,7-dihydro-1H-pyrrolo[3,2-c]pyridin-4(5H)-one] | – |
| 0.366 | Cc1nc2cccc(-c3cc4c([nH]3)CCNC4=O)c2nc1NC1CCCOC1 (single isomer, unassigned) [Example 208, 2-(2-methyl-3-((tetrahydro-2H-pyran-3-yl)amino)quinoxalin-5-yl)-6,7-dihydro-1H-pyrrolo[3,2-c]pyridin-4(5H)-one] | – |

More lines, now with the values behind:

| SMILES | IC50 [1, 3] [µM] | other results |
| --- | --- | --- |
| CC1CNC(=O)c2cc(-c3cccc4ccc(Nc5ccccc5)nc34)[nH]c21 (single isomer, unassigned) [Example 29, 7-methyl-2-(2-(phenylamino)quinolin-8-yl)-6,7-dihydro-1H-pyrrolo[3,2-c]pyridin-4(5H)-one] | – | IC50 [1, 2]: 0.737 µM |
| Cc1nc2cccc(-c3cc4c([nH]3)CCNC4=O)c2nc1NC1CCCOC1 (single isomer, unassigned) [Example 209, 2-(2-methyl-3-((tetrahydro-2H-pyran-3-yl)amino)quinoxalin-5-yl)-6,7-dihydro-1H-pyrrolo[3,2-c]pyridin-4(5H)-one] | – | IC50 [1, 2]: 0.268 µM |
| CC[C@@H]1CNC(=O)c2cc(-c3cccc4ccc(Nc5ccccc5)nc34)[nH]c21 [Example 25, (R)-7-ethyl-2-(2-(phenylamino)quinolin-8-yl)-6,7-dihydro-1H-pyrrolo[3,2-c]pyridin-4(5H)-one] | 4.56 | – |
| CCC1CNC(=O)c2cc(-c3cccc4ccc(Nc5ccccc5)nc34)[nH]c21 (racemic) [Example 24, rac-7-ethyl-2-(2-(phenylamino)quinolin-8-yl)-6,7-dihydro-1H-pyrrolo[3,2-c]pyridin-4(5H)-one] | 1.41 | – |
| Cc1nc2cccc(-c3cc4c([nH]3)CCNC4=O)c2nc1NC(C)(C)C(N)=O [Example 62, 2-methyl-N-2-(3-methyl-8-(4-oxo-4,5,6,7-tetrahydro-1H-pyrrolo[3,2-c]pyridin-2-yl)-2-quinoxalinyl)alaninamide] | 2.61 | – |
| CC1CNC(=O)c2cc(-c3cccc4ccc(Nc5ccccc5)nc34)[nH]c21 (single isomer, unassigned) [Example 30, 7-methyl-2-(2-(phenylamino)quinolin-8-yl)-6,7-dihydro-1H-pyrrolo[3,2-c]pyridin-4(5H)-one] | – | IC50 [1, 2]: 5.89 µM |
| O=C1NCCc2[nH]c(-c3cccc4ccc(N[C@H]5CC[C@H](O)CC5)nc34)cc21 [Example 82, 2-(2-(((1R,4R)-4-hydroxycyclohexyl)amino)quinolin-8-yl)-6,7-dihydro-1H-pyrrolo[3,2-c]pyridin-4(5H)-one] | 4.62 | – |
| Cc1nc2cccc(-c3cc4c([nH]3)CCNC4=O)c2nc1NC(C)C(C)C (racemic) [Example 73, 2-(3-4(±)-1,2-dimethylpropyl)amino)-2-methyl-5-quinoxalinyl)-1,5,6,7-tetrahydro-4H-pyrrolo[3,2-c]pyridin-4-one] | 0.107 | – |
| Nc1nc2cccc(-c3cc4c([nH]3)CCNC4=O)c2nc1Oc1ccccc1 [Example 36, 2-(2-amino-3-phenoxyquinoxalin-5-yl)-6,7-dihydro-1H-pyrrolo[3,2-c]pyridin-4(5H)-one] | 0.209 | – |
| Cc1nc2cccc(-c3cc4c([nH]3)CCNC4=O)c2nc1NC(C)(C)CNCCS(C)(=O)=O [Example 342, 2-(3-((1,1-dimethyl-2-((2-(methylsulfonyl)ethyl)amino)ethyl)amino)-2-methyl-5-quinoxalinyl)-1,5,6,7-tetrahydro-4H-pyrrolo[3,2-c]pyridin-4-one] | – | IC50 (Pim-1): 0.0281 µM; IC50 (Pim-2): 0.0204 µM; IC50 (KMS-12-BM cell lines): 11.5 µM |
| Cc1cc2cccc(-c3cc4c([nH]3)CCNC4=O)c2nc1Oc1ccccc1 [Example 104, 2-(3-methyl-2-phenoxyquinolin-8-yl)-6,7-dihydro-1H-pyrrolo[3,2-c]pyridin-4(5H)-one] | 5.23 | – |
| Cc1nc2cccc(-c3c[nH]c(C(N)=O)c3)c2nc1NC(C)(C)C [Example 420, 4-(3-(tert-butylamino)-2-methyl-5-quinoxalinyl)-1H-pyrrole-2-carboxamide] | – | IC50 (Pim-1): 0.0265 µM; IC50 (Pim-2): 0.0348 µM; IC50 (KMS-12-BM cell lines): 9.12 µM |
| Cc1nc2cccc(-c3cc4c([nH]3)CNC4=O)c2nc1NC(C)(C)C [Example 334, 2-(3-(tert-Butylamino)-2-methyl-5-quinoxalinyl)-5,6-dihydropyrrolo[3,4-b]pyrrol-4(1H)-one] | – | IC50 (Pim-1): 0.00118 µM; IC50 (Pim-2): 0.000882 µM; IC50 (KMS-12-BM cell lines): 0.0438 µM |
| Cc1nc2ccc(F)c(-c3cc4c([nH]3)C3(CC3)NC4=O)c2nc1NC(C)C [Example 330, 2′-(6-Fluoro-3-(isopropylamino)-2-methylquinoxalin-5-yl)-1′H-spiro[cyclopropane-1,6′-pyrrolo[3,4-b]pyrrol]-4′(5′H)-one] | – | IC50 (Pim-1): 0.000724 µM; IC50 (Pim-2): 0.00117 µM; IC50 (KMS-12-BM cell lines): 0.0856 µM |
